One may read the melting point as the temperature of the solid-liquid transition.

The structures appear in SMILES notation. pIC50: −log10 of the molar value. A value given as a limit tells only on which side of the number the result lay.

One series concerns HCT116 cells. Put plainly: Inhibition of proliferation of the HCT116 human colon tumor line ([14C]-thymidine incorporation). As to conditions: HCT-116, 48 hours incubation at 37° C., read-out: Inhibition of HCT116 proliferation IC 50. The class given is cell-based. The essentials:
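HCT116 cells at 5000/well in DMEM with 10% fetal calf serum were treated with compounds up to 10 μM (DMSO ≤0.5%) plus [14C]-thymidine 0.1 μCi/well for 48 h at 37 °C. IC50 is the concentration halving incorporated radioactivity against untreated control.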
For orientation: Incorporation of labelled thymidine or its analogues reports DNA synthesis.

Series [1] has as its target T1, Tubulin purified from pig brains (Sus scrofa, UniProt P02550+P02554).
T1 construct: Tubulin is purified from pig brains according to published methods; from tissue; host or cells: pig brain
Put plainly: Assessment of the inhibition of tubulin polymerization (turbidimetry at 350 nm). To be noted: concentration which inhibits the rate of polymerization by 50%; tubulin 1 mg/ml, 37° C.; read-out: Inhibition of tubulin polymerization IC 50. The class given is biochemical. Summed up: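 Pig brain tubulin, >95% pure after polymerization/depolymerization cycles and phosphocellulose removal of MAPs, used at 10 μm in MES pH 6.8/30% glycerol buffer with 1 mM GTP and 6 mM MgCl2. Compounds at 0.5–10 μm were added before a 6→37 °C shift triggered assembly, followed by turbidity at 350 nm. IC50 is the concentration halving polymerization rate.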

T1 sequence (P02550 whole entry): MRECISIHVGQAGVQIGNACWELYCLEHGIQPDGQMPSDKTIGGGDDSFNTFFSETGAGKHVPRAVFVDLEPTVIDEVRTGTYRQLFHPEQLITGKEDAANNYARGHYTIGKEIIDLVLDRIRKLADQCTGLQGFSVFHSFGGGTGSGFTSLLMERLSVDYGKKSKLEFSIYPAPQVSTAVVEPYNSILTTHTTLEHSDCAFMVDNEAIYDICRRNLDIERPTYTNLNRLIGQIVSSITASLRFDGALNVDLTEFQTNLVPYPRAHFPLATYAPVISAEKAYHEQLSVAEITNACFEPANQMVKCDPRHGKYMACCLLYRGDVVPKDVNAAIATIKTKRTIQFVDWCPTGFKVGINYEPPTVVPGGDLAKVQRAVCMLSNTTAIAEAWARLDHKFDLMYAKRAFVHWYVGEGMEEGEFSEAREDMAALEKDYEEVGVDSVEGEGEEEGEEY
T1 sequence (P02554 whole entry): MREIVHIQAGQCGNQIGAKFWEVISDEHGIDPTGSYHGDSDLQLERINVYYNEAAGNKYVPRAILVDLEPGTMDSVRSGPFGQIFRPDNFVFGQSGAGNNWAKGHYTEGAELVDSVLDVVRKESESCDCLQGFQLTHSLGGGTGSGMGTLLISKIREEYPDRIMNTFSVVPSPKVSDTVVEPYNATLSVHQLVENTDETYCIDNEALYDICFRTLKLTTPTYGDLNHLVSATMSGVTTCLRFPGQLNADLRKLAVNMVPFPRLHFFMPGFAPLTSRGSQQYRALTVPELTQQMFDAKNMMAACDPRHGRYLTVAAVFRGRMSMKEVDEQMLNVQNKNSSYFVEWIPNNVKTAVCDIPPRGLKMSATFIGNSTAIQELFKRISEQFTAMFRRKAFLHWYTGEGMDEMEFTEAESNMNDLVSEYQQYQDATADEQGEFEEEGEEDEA

Regarding `COc1cc(OC)cc(N2CCN(C(=O)c3[nH]cnc3-c3ccccc3)CC2)c1` [Example 9, [4-(3,5-Dimethoxyphenyl)piperazin-1-yl](4-phenyl-1H-imidazol-5-yl)-methanone], the melting point is 196 °C. Besides, the pIC50 with HCT116 cells was 8.89. For the same compound, the pIC50 in series [1] was 6.22.

As to `O=C(c1nc(S)[nH]c1-c1ccccc1)N1CCN(c2cccc(Cl)c2)CC1` [Example 19, [4-(3-Chlorophenyl)piperazin-1-yl](2-mercapto-5-phenyl-1H-imidazol-4-yl)-methanone], the melting point is over 260 °C. Also, the pIC50 with HCT116 cells was 7.54. In addition, the pIC50 in series [1] was 6.12.

`COc1cc(OC)cc(N2CCN(C(=O)c3ccn(C)c3-c3ccccc3)CC2)c1` [Example 27, [4-(3,5-Dimethoxyphenyl)piperazin-1-yl](1-methyl-2-phenyl-1H-pyrrol-3-yl)-methanone] came in with a melting point of 130 °C. The pIC50 with HCT116 cells was 7.82. In addition, the pIC50 in series [1] was 5.72.

Compound `COc1cc(OC)cc(N2CCN(C(=O)c3[nH]c(O)nc3-c3ccccc3)CC2)c1` [Example 28, [4-(3,5-Dimethoxyphenyl)piperazin-1-yl](2-hydroxy-5-phenyl-1H-imidazol-4-yl)methanone] showed a melting point of 130 °C. The pIC50 in the series with HCT116 cells is 8.82. In series [1], the pIC50 is 5.96.

Consider `NC(=O)c1cccc(N2CCN(C(=O)c3nc(O)[nH]c3-c3ccccc3)CC2)c1` [Example 51, 3-[4-(2-Hydroxy-4-phenyl-1H-imidazol-5-yl-carbonyl)piperazin-1-yl]benzamide], for which the melting point amounted to 202 °C. Besides, the pIC50 with HCT116 cells is 5.87. Also, the pIC50 in series [1] was 6.30.

`N#Cc1cccc(N2CCN(C(=O)c3[nH]c(S)nc3-c3ccccc3)CC2)c1` [Example 52, 3-[4-(2-Mercapto-4-phenyl-1H-imidazol-5-yl-carbonyl)piperazin-1-yl]-benzonitrile]: the melting point was determined as 247 °C. For the same compound, the pIC50 with HCT116 cells was 7.00. Moreover, the pIC50 in series [1] is 6.40.

As for `COc1cc(OC)cc(N2CCN(C(=O)c3ccn(CCO)c3-c3ccccc3)CC2)c1` [Example 53, [4-(3,5-Dimethoxyphenyl)piperazin-1-yl][1-(2-hydroxyethyl)-2-phenyl-1H-pyrrol-3-yl]methanone], the melting point worked out at 157 °C. For the same compound, the pIC50 in the series on HCT116 cells is 7.34. The pIC50 in series [1] is 6.09.

The compound `O=C(c1[nH]c(O)nc1-c1ccccc1)N1CCN(c2cccc(CO)c2)CC1` [Example 57, [4-(3-Hydroxymethylphenyl)piperazin-1-yl](2-hydroxy-4-phenyl-1H-imidazol-5-yl)methanone] displayed a melting point of 173 °C. Moreover, the pIC50 in the series on HCT116 cells is 7.77. The pIC50 in series [1] was 6.10.

`COc1cc(OC)cc(N2CCN(C(=O)c3ccn(C(C)=O)c3-c3ccccc3)CC2)c1` [Example 63, [4-(3,5-Dimethoxyphenyl)piperazin-1-yl](1-acetyl-2-phenyl-1H-pyrrol-3-yl)methanone] came in with a melting point of 150 °C. Moreover, in series [1], the pIC50 was 5.40.

`CS(=O)(=O)c1nc(-c2ccccc2)c(C(=O)N2CCN(c3cccc(C#N)c3)CC2)[nH]1` [Example 70, 3-[4-(2-Methylsulfonyl-4-phenyl-1H-imidazol-4-ylcarbonyl)piperazin-1-yl]benzonitrile] showed a melting point of 198 °C. Further, the pIC50 in series [1] was 5.43.

In the case of `N#Cc1cccc(N2CCN(C(=O)c3cc[nH]c3-c3ccccc3)CC2)c1` [Example 74, 3-[4-(2-Phenyl-1H-pyrrol-3-ylcarbonyl)piperazin-1-yl]benzonitrile], the melting point is 80 °C. The pIC50 with HCT116 cells was 7.28. Also, the pIC50 in series [1] was 5.52.

`N#Cc1cccc(N2CCN(C(=O)c3[nH]c(O)nc3-c3ccccc3)CC2)c1` [Example 75, 3-[4-(2-Hydroxy-4-phenyl-1H-imidazol-5-ylcarbonyl)piperazin-1-yl]-benzonitrile] showed a melting point of 198 °C. Besides, in the series with HCT116 cells, the pIC50 was 7.94. Further, the pIC50 in series [1] was 6.00.

In the case of `Cc1nc(-c2ccccc2)c(C(=O)N2CCN(c3cccc(CO)c3)CC2)[nH]1` [Example 76, [4-(3-Hydroxymethylphenyl)piperazin-1-yl](2-methyl-4-phenyl-1H-imidazol-5-yl)methanone], the pIC50 with HCT116 cells was 7.00; in series [1], 6.01.

As to `O=C(c1[nH]c(S)nc1-c1ccccc1)N1CCN(c2cccc(CO)c2)CC1` [Example 78, [4-(3-Hydroxymethylphenyl)piperazin-1-yl](2-mercapto-4-phenyl-1H-imidazol-5-yl)methanone], the pIC50 with HCT116 cells is 6.61; in series [1] it was 6.14.

For the compound `CSc1nc(-c2ccccc2)c(C(=O)N2CCN(c3cccc(CO)c3)CC2)[nH]1` [Example 79, [4-(3-Hydroxymethylphenyl)piperazin-1-yl](2-methylsulfanyl-4-phenyl-1H-imidazol-5-yl)methanone], the pIC50 was 7.93 in the series with HCT116 cells and 6.31 in series [1].

For `N#Cc1cccc(N2CCN(C(=O)c3ccn(CCO)c3-c3ccccc3)CC2)c1` [Example 81, 3-[4-(1-Hydroxyethyl-2-phenyl-1H-pyrrol-3-ylcarbonyl)piperazin-1-yl]-benzonitrile], the melting point amounted to 158 °C. The pIC50 in the series with HCT116 cells is 6.51. In addition, the pIC50 in series [1] is 5.62.

In the case of `N#Cc1cccc(N2CCN(C(=O)c3sc(N)nc3-c3ccccc3)CC2)c1` [Example 82, 3-[4-(2-Amino-4-phenylthiazol-5-ylcarbonyl)piperazin-1-yl]benzonitrile], the melting point came to 246 °C. Besides, the pIC50 in series [1] is 6.53.

For the compound `NC(=O)c1cccc(N2CCN(C(=O)c3sc(N)nc3-c3ccccc3)CC2)c1` [Example 85, 3-[4-(2-Amino-4-phenyl-thiazol-5-ylcarbonyl)piperazin-1-yl]benzamide], the melting point was 236 °C. In addition, the pIC50 in series [1] is 6.16.

In turn, `Nc1nc(-c2ccccc2)c(C(=O)N2CCN(c3cccc(CO)c3)CC2)s1` [Example 88, [4-(3-Hydroxymethylphenyl)piperazin-1-yl](2-amino-4-phenylthiazol-5-yl)-methanone] displayed a melting point of 176 °C. In addition, the pIC50 in series [1] was 6.15.

The values are drawn from US20050014765A1, “Aryl-heteroaromatic products, compositions comprising them and use” (Aventis Pharma S.A., priority 2003, published 2005).
